{"source": "patent US20230263822A1", "about": "“MODULATION OF FACTOR 11 EXPRESSION” (Ionis Pharmaceuticals, Inc., priority 2008, published 2023)", "key": {"murine Factor 11 protein": {"test_system": "murine Factor 11 protein", "experiment": "Factor 11 protein, F11 assay based on clotting time (Example 10)", "type": "in vivo", "conditions": "BALB/c mice; for % Inhibition of murine Factor 11 protein: plasma, relative to PBS control", "experimental": "BALB/c mice were injected with 5 mg/kg, 10 mg/kg, 25 mg/kg, or 50 mg/kg of ISIS 404057 or ISIS 404071 twice a week for 3 weeks. A control group of mice was injected with phosphate buffered saline (PBS) twice a week for 3 weeks. Mice were sacrificed 5 days after receiving the last dose. Whole liver was harvested for RNA analysis and plasma was collected for clotting analysis (PT and aPTT) and protein analysis.\nFactor 11 proenzyme from the plasma of mice treated with ISIS 404071, was measured using a F11 assay based on clotting time. Clotting times were determined in duplicate with a ST4 semi-automated coagulation instrument (Diagnostica Stago, NJ). Thirty μl of citrated sample plasma diluted 1/20 in HEPES-NaCl buffer with BSA was incubated with 30 μl aPTT reagent (Platelet Factor 3 reagent plus particulate activator) and 30 μl of citrated plasma deficient of Factor 11 (human congential, George King Bio-Medical Inc.) at 37° C. to initiate clotting. Results were interpolated on a standard curve of serially diluted citrated control murine plasma.\nResults are presented as percent inhibition of Factor 11, relative to PBS control."}, "Factor 11 mRNA": {"test_system": "Factor 11 mRNA", "experiment": "Factor 11 mRNA in liver, FeCl3 induced venous thrombosis model vs Apixaban (Example 14)", "type": "in vivo, BALB/c mice", "conditions": "for % inhibition of Factor 11 mRNA in liver relative to PBS control: FeCl3 VT model", "experimental": "ISIS 404071 and Apixaban were evaluated in the FeCl3 induced VT mouse model. […] Two days after receiving the last dose of ISIS 404071, mice were anesthetized with 150 mg/kg ketamine mixed with 10 mg/kg xylazine administered by intraperitoneal injection. […] Twenty minutes after receiving Apixaban, mice were anesthetized with 150 mg/kg ketamine mixed with 10 mg/kg xylazine administered by intraperitoneal injection. […] Two days after the last dose of PBS, mice in both groups were anesthetized with 150 mg/kg ketamine mixed with 10 mg/kg xylazine administered by intraperitoneal injection. Thrombus formation was induced with FeCl3 in all of the mice except the first control group.\nIn mice undergoing FeCl3 treatment, thrombus formation was induced by applying a piece of filter paper (2×4 mm) pre-saturated with 10% FeCl3 solution directly on the vena cava. After 3 minutes of exposure, the filter paper was removed. Thirty minutes after the filter paper application, a fixed length of the vein containing the thrombus was dissected out for platelet analysis. Liver was collected for RNA analysis.\nRNA was extracted from liver tissue for real-time PCR analysis of Factor 11. Results are presented as percent inhibition of Factor 11, relative to PBS control."}, "blood coagulation": {"test_system": "blood coagulation", "experiment": "PT and aPTT, combination with LOVENOX (Example 19)", "type": "in vivo, BALB/c mice", "experimental": "PT and aPTT were measured using PPP from mice treated with ISIS 404071 in combination with LOVENOX. In the first cohort, ISIS 404071 was administered subcutaneously to BALB/c mice at a dosage of 25 mg/kg twice a week for 3 weeks. Plasma was collected from these mice 5 days after receiving the last dose of ISIS 404071. In the second cohort, LOVENOX was administered subcutaneously to BALB/c mice at a dosage of 20 mg/kg once daily for three days. Plasma was collected from these mice 4 hours after receiving the last dose of LOVENOX. In the third cohort, ISIS 404071 was administered subcutaneously to BALB/c mice at a dosage of 20 mg/kg twice a week for 3 weeks, and 2 days after receiving the last dose of ISIS 404071, LOVENOX was administered subcutaneously at a dosage of 20 mg/kg once daily. Plasma was collected from these mice 4 hours after the last dose of LOVENOX. In a fourth cohort, PBS was administered subcutaneously twice a week for three weeks, as a control. Plasma was collected from these mice 5 days after the last dose.\nPT and aPTT values provided in Table 31 are reported as International Normalized Ratio (INR) values. […] Also shown in Table 31, treatment with LOVENOX and treatment with ISIS 404071 combined with LOVENOX increase aPTT."}, "platelet factor-4 (PF-4)": {"test_system": "platelet factor-4 (PF-4)", "experiment": "Thrombus formation by PF-4, FeCl3 induced VT model, combination with PLAVIX (Example 26)", "type": "in vivo, BALB/c mice", "conditions": "ISIS 404071 20 mg/kg, PLAVIX 0 mg/kg", "experimental": "The combination of ISIS 404071 and PLAVIX was evaluated in the FeCl3 induced VT mouse model. Four groups of eight BALB/c mice, weighing approximately 25 g each, were treated with 6.25 mg/kg, 12.50 mg/kg, 25.00 mg/kg, or 50.00 mg/kg of PLAVIX. Mice were given two doses of PLAVIX on day one and one dose of PLAVIX on day two, two hours before surgery.\nAfter the last dose of ISIS 404071, mice were treated with 6.25 mg/kg, 12.50 mg/kg, 25.00 mg/kg, or 50.00 mg/kg of PLAVIX. Two doses of PLAVIX were administered to the mice on day one and one dose of PLAVIX was administered on day two, two hours before surgery.\nTwo control groups of eight BALB/c mice, weighing approximately 25 g each, were not treated with ISIS 404071 or PLAVIX. […] Thrombus formation was induced with FeCl3 in all of the mice except the first […] control groups. All mice were anesthetized with 150 mg/kg of ketamine mixed with 10 mg/kg of xylazine administered by intraperitoneal injection.\nAfter 3 minutes of exposure, the filter paper was removed. Thirty minutes after the filter paper application, a fixed length of the vein containing the thrombus was dissected out for platelet analysis.\nReal-time PCR quantification of PF-4 was used to quantify platelets in the vena cava as a measure of thrombus formation. […] Therefore, the combination of anti-platelet therapy with Factor 11 ASO increases antithrombotic activity. Data is presented as percent of PF-4 mRNA as compared to the PBS+ FeCl3 control."}, "[1]": {"conditions": "ISIS 404071 alone 25 mg/kg s.c. twice a week for 3 weeks, LOVENOX alone 20 mg/kg s.c. once daily for three days, combination 20 mg/kg + 20 mg/kg"}}, "data": [{"substance": "ISIS 404071: antisense oligonucleotide targeted to murine Factor 11 mRNA, TGGTAATCCACTTTCAGAGG, target start site 869 (chemistry not given here)", "values": [{"measurement": "Factor 11 protein", "setting": "murine Factor 11 protein; 5-50 mg/kg", "result": "significant dose-dependent reduction of Factor 11 protein"}, {"measurement": "% Inhibition of murine Factor 11 protein", "setting": "murine Factor 11 protein; 5 mg/kg", "result": 39, "unit": "%"}, {"measurement": "% Inhibition of murine Factor 11 protein", "setting": "murine Factor 11 protein; 10 mg/kg", "result": 67, "unit": "%"}, {"measurement": "% Inhibition of murine Factor 11 protein", "setting": "murine Factor 11 protein; 25 mg/kg", "result": 89, "unit": "%"}, {"measurement": "% Inhibition of murine Factor 11 protein", "setting": "murine Factor 11 protein; 50 mg/kg", "result": 96, "unit": "%"}, {"measurement": "Factor 11 mRNA in liver vs PBS control", "setting": "Factor 11 mRNA; FeCl3 induced VT model, ISIS 404071 1.25-40 mg/kg, Apixaban 0.5-5 mg/kg s.c. once", "result": "significant dose-dependent reduction of Factor 11 mRNA"}, {"measurement": "% inhibition of Factor 11 mRNA in liver relative to PBS control", "setting": "Factor 11 mRNA; ISIS 404071 1.25 mg/kg subcutaneously twice a week for 3 weeks", "result": 15, "unit": "%"}, {"measurement": "% inhibition of Factor 11 mRNA in liver relative to PBS control", "setting": "Factor 11 mRNA; ISIS 404071 5 mg/kg subcutaneously twice a week for 3 weeks", "result": 63, "unit": "%"}, {"measurement": "% inhibition of Factor 11 mRNA in liver relative to PBS control", "setting": "Factor 11 mRNA; ISIS 404071 10 mg/kg subcutaneously twice a week for 3 weeks", "result": 76, "unit": "%"}, {"measurement": "% inhibition of Factor 11 mRNA in liver relative to PBS control", "setting": "Factor 11 mRNA; ISIS 404071 25 mg/kg subcutaneously twice a week for 3 weeks", "result": 91, "unit": "%"}, {"measurement": "% inhibition of Factor 11 mRNA in liver relative to PBS control", "setting": "Factor 11 mRNA; ISIS 404071 50 mg/kg subcutaneously twice a week for 3 weeks", "result": 95, "unit": "%"}, {"measurement": "PT", "setting": "blood coagulation; BALB/c mice, ISIS 404071 25 or 20 mg/kg, LOVENOX 20 mg/kg", "result": "not significantly affected"}, {"measurement": "PT INR", "setting": "blood coagulation; [1]", "result": 0.95, "unit": "INR"}, {"measurement": "aPTT INR", "setting": "blood coagulation; [1]", "result": 1.31, "unit": "INR"}, {"measurement": "PF-4 mRNA, percent as compared to the PBS + FeCl3 control (thrombus formation)", "setting": "platelet factor-4 (PF-4); + FeCl3", "result": 40, "unit": "%"}, {"measurement": "PF-4 mRNA, percent as compared to the PBS + FeCl3 control (thrombus formation)", "setting": "platelet factor-4 (PF-4); − FeCl3", "result": 27, "unit": "%"}]}]}
